Data on one compound can be found in US20240284792A1, “ORGANIC COMPOUND, LIGHT-EMITTING DEVICE, DISPLAY APPARATUS, AND ELECTRONIC DEVICE” (SEMICONDUCTOR ENERGY LABORATORY CO., LTD., priority 2023, published 2024).

A short description of the data set: Solubility test (water solubility) by LC-MS analysis. The class given is physicochemical. Here is the method: In the LC-MS analysis, liquid chromatography (LC) separation was carried out with ACQUITY UPLC manufactured by Waters Corporation, and MS analysis (mass spectrometry) was carried out with Xevo G2 Tof MS manufactured by Waters Corporation. Acquity UPLC BEH C8 (2.1×100 mm, 1.7 μm) was used as a column for the LC separation. Acetonitrile was used for Mobile Phase A and a 0.1% aqueous solution of formic acid was used for Mobile Phase B. The injection amount of the sample was 5.0 μL. Note that in the analysis, the wavelength of a photodiode array detector was set to 330 nm±1 nm.
In a 5-mL sample bottle, 1 mg of SFPy-hpp was put and 2 mL of N,N-dimethylformamide was added thereto. This mixture was irradiated with ultrasonic waves for five minutes. After it was confirmed that the solid was completely dissolved, this solution was diluted by 2.5 times with acetonitrile, whereby the concentration of the solution was adjusted to 200 mg/L. This solution was diluted with acetonitrile, whereby a solution with a concentration of 4 mg/L, a solution with a concentration of 2 mg/L, and a solution with a concentration of 0.2 mg/L were prepared. The prepared solutions were subjected to LC-MS analysis, and the peak area values derived from SFPy-hpp, which were obtained at the respective solution concentrations, were used to form calibration curves.
Next, the water solubility of SFPy-hpp was measured.
In a 5-mL sample bottle, 1 mg of SFPy-hpp was put and 1 mL of water was added thereto. This mixture was irradiated with ultrasonic waves for five minutes. This mixture was filtered through a membrane filter to remove the solid. The obtained solution was subjected to LC-MS analysis.

In brackets after ≈: the same amount, converted by molar mass.

As a reminder, the solubility is how much of the substance goes into solution per volume. Turning to `c1cc(-c2ccc3c(c2)C2(c4ccccc4-c4ccccc42)c2ccccc2-3)nc(N2CCCN3CCCN=C32)c1` [SFPy-hpp, 1-[6-(9,9′-spirobi[9H-fluoren]-2-yl)pyridin-2-yl]-1,3,4,6,7,8-hexahydro-2H-pyrimido[1,2-a]pyrimidine], the “solubility in 1 mL of water” value (1 mg compound in 1 mL water, ultrasonic waves five minutes, membrane filtered, LC-MS with calibration curve) was 0.00029 mg. Moreover, where the note is “thermodynamic from solid, water, from calibration curve and LC-MS signal intensity, read-out: weight fraction of the water solubility”, the solubility at 5 min is 0.29 µg/mL (≈ 0.546 µM). In addition, where the note is “water, conclusion from LC-MS solubility test”, the “water solubility (in words)” value was “extremely low water solubility”.
